How the values were obtained:
[1] = tested on: MCF-7 and HCT 116 cell lines; assay: MTT cytotoxicity, IC50 range stated over MCF-7 and HCT 116; assay type: cell-based; conditions: range over both cell lines; read-out: Cytotoxic activity IC50 range against MCF 7 and HCT 116
Experimental: The monolayer cell culture was trypsinized and the cell count was adjusted to 5.0 × 10^5 cells/ml using respective media containing 10% FBS. To each well of the 96-well microtiter plate, 100 µL of the diluted cell suspension (50,000cells/well) was added. After 24 h, when a partial monolayer was formed, the supernatant was flicked off, the monolayer was then washed once again with the medium and 100 µL of different test concentrations of test drugs were added on to the partial monolayer in microtiter plates. The plates were then incubated at 37 °C for 24 h in 5% CO2 atmosphere. After incubation, the test solutions in the wells were discarded and 100 µL of MTT (5 mg/10 ml of MTT in PBS) was added to each well. The plates were then incubated for 4 h at 37 °C in 5% CO2 atmosphere. The supernatant was then removed and 100 µL of DMSO was added and the plates were gently shaken to solubilize the formed formazan. The absorbance was measured using a microtiter plate reader at a wavelength of 590 nm. The percentage growth inhibition was thus calculated using the following formula and the concentration of the test drug required to inhibit the cell growth by 50% (IC50) values is generated from the dose–response curves for each one of the cell lines (Meerloo et al. [2011]). […]

MCF-7 = assay: MTT cytotoxicity assay on MCF-7; assay type: cell-based; conditions: Homo sapiens, MCF7, 24 h, read-out: Inhibition of cell proliferation, IC50, MCF-7
Experimental: (§1) The monolayer cell culture was trypsinized and the cell count was adjusted to 5.0 × 10^5 cells/ml using respective media containing 10% FBS. To each well of the 96-well microtiter plate, 100 µL of the diluted cell suspension (50,000cells/well) was added. After 24 h, when a partial monolayer was formed, the supernatant was flicked off, the monolayer was then washed once again with the medium and 100 µL of different test concentrations of test drugs were added on to the partial monolayer in microtiter plates. The plates were then incubated at 37 °C for 24 h in 5% CO2 atmosphere. After incubation, the test solutions in the wells were discarded and 100 µL of MTT (5 mg/10 ml of MTT in PBS) was added to each well. The plates were then incubated for 4 h at 37 °C in 5% CO2 atmosphere. The supernatant was then removed and 100 µL of DMSO was added and the plates were gently shaken to solubilize the formed formazan. The absorbance was measured using a microtiter plate reader at a wavelength of 590 nm. The percentage growth inhibition was thus calculated using the following formula and the concentration of the test drug required to inhibit the cell growth by 50% (IC50) values is generated from the dose–response curves for each one of the cell lines (Meerloo et al. [2011]).
(§2) The test compounds were screened for their in vitro cytotoxicity by MTT assay against two cancer cell lines, namely MCF-7, HCT-116 and normal epithelial kidney cells (Vero). Doxorubicin was used as a reference standard.

HCT 116 = assay: MTT cytotoxicity assay on HCT 116; assay type: cell-based, Human; conditions: Homo sapiens, HCT-116, 24 h, read-out: Inhibition of cell proliferation, IC50, HCT 116
Experimental: as §1, §2

[2] = tested on: normal epithelial kidney cells (Vero); assay: MTT cytotoxicity assay on Vero; assay type: cell-based; conditions: Chlorocebus sabaeus, Vero, 24 h, read-out: Inhibition of cell proliferation, IC50, Vero
Experimental: as §1, §2

[3] = ABTS.+ radical scavenging assay
Experimental: The assay was performed in a 96-well plate by serial dilution method. A 2 mM ABTS^.+ working solution was prepared in a phosphate buffer (Zheleva-Dimitrova et al [2010]).To this, 200 μL of aqueous potassium per sulfate (70 mM) solution was added and the solution was incubated for 24 h in the dark at room temperature to develop a blue-green color. To 30 μL of ABTS^.+ working solution, 50 μL of different concentrations (3.9–1000 μM) of the test sample solution and 170 μL of phosphate buffer (pH-7.4) were added in a well. The plate was then incubated in the dark at room temperature for 10 min. Then absorbance was measured at 690 nm using Elisa reader. Quercetin and ascorbic acid were used as standards. The percentage scavenging of ABTS^.+ was calculated using the formula, (Control Absorbance–Test Absorbance)*100/(Control Absorbance) and the anti-oxidant activity was expressed in terms of IC50 value.

[4] = DPPH. free radical scavenging assay
Experimental: DPPH. assay was performed using 96-well plate by serial dilution method. The dilution of methanolic stock solution of the test compounds and standard anti-oxidants was carried out to obtain concentration in the range of 3.9–1000 µM. Quercetin and ascorbic acid were used as standards. To a 100 μL of this solution, 100 μL of 200 µM DPPH^. in methanolic solution was added. The experiment was done in triplicate and the plate was then incubated for 30 min in the dark and later the absorbance was measured at 517 nm using Elisa reader. The percentage DPPH^. Scavenging was calculated using the formula, (Control Absorbance–Test Absorbance)*100/(Control Absorbance). The anti-oxidant activity of the test compounds was expressed in terms of concentration required for 50 percentage inhibition (IC50) (Collins [2005]).

CDK2/Cyclin A = CDK2/Cyclin A (Homo sapiens, UniProt P24941); assay: CDK2/cyclin A inhibitory assay, Z'-LYTE FRET kinase assay; assay type: biochemical; conditions: concentration of 100 micro molar; 1000 ng/ml kinase, 1000 µM ATP
Source text: Z’-LYTE® technology involves homogeneous assay design based on FRET and is a universal platform for both screening as well as profiling protein kinases. The assay uses a peptide substrate labeled with two different fluorophores, coumarin donor and fluorescein acceptor on each end. These two fluorophores make up a FRET pair, which allows the transfer of energy when both are present on the same molecule. The initial kinase reaction transfers the ϒ-phosphate of ATP to a tyrosine or serine/threonine residue on the substrate. In a secondary reaction, referred to as the development reaction, a site-specific protease recognizes and cleaves only non-phosphorylated peptide, while phosphorylated substrate remains uncleaved. […] Upon excitation of Coumarin at 400 nm, the FRET signal is measured as a ratio between the Coumarin donor emission at 445–460 nm and the fluorescein acceptor emission at 520–535 nm(Lebakken et al. [2007]).
Initial ten-fold and two-fold dilutions of Kinase and ATP concentrations were used to choose the optimal Kinase and ATP concentration based on the % Phosphorylation.
The assay was carried out according to the kit instructions (384 well format). Briefly, 5X kinase buffer [250 mM HEPES (pH 7.5), 50 mM MgCl2, 5 mM EGTA, 0.05% BRIJ-35] was diluted to 1X using distilled water. The phosphor peptide positive control (Z’-LYTE® Tyr 4 phospho-peptide) and the non-phosphorylated negative control (Z’-LYTE® Tyr 4 peptide) were then diluted to 1:500 with 1× kinase buffer to 2 μM. […] Working development solution was then made by diluting 12 μL of the provided stock solution with 388 μL of the provided development buffer. Aliquots (20 μL) of each peptide mixture were then added to the wells of a Corning 3914 solid white microplate in replicates of 8. The development reaction was initiated by the addition of 10 μL of working development-solution to all the wells. Further, the plates were allowed to incubate at room temperature for 60 min. Reactions were then stopped by the addition of 10 μL of stop solution (Jia et al. [2008]).
Reactions were quantitated using a Tecan Robotic Microplate Reader. Reader control, blank subtraction, ratio metric calculations and finally graph plotting were carried out using Gen5™ Data Analysis Software.
The CDK2/Cyclin A assay was carried out as per the manufacturer’s instruction using suitable controls and standard.
The inhibitory assay was carried out using the stock of 10 mM in DMSO. Samples were further serially diluted to obtain concentrations of 100 μM. The concentrations were chosen based on the IC50 values obtained in the MTT assay. A total of 23 analogues were selected for the assay based on their antiproliferative activity. Further, selected compounds were screened and tested against the target CDK2/Cyclin A, and their % phosphorylation and % inhibition were recorded.

HCT 116 cell lines = assay: Cell cycle analysis (PI, FACS); assay type: cell-based, Human; conditions: standard at 25 μM
Experimental: The cell cycle analysis was followed where 1 × 10^6 cells were seeded and cultured for 24 h in a 6-well plate containing 2 ml of the media. Cells were then treated with desired concentrations of the given samples that were prepared in media and further incubated for another 24 h. Cells were then harvested and centrifuged at 2000 rpm for 5 min at room temperature and the supernatant was discarded carefully retaining the cell pellet. Cell pellet was then washed by resuspending in 2 ml of 1XPBS. The washing was repeated another time under the same conditions. Further, the supernatant was discarded retaining the pellet. Cells were then fixed by resuspending in 300 µL of Sheath fluid followed by the addition of 1 ml of chilled 70% ethanol drop by drop gently with continuous shaking and one more mL of the same at once. The cells were then stored at 4 °C overnight. Post fixing, the cells were centrifuged at 2000 rpm for 5 min washed twice with 2 ml of cold 1XPBS and suspended in 450 µL of sheath fluid containing 0.05 mg/ml PI (Propidium iodide), 0.05 mg/ml RNase A and incubated for 15 min in the dark (Kasibhatla et al. [2006]).The percentage of cells in various stages of cell cycle both in the treated as well as un-treated populations was determined using FACS Caliber (BD Biosciences, San Jose, CA).

HCT-116 cells = assay: Apoptosis detection by propidium iodide / Annexin V-FITC; assay type: cell-based, Human; set-up: FACS analysis of apoptosis detection, Viable cells / FACS analysis of apoptosis detection, Early apoptotic / FACS analysis of apoptosis detection, Late apoptotic / FACS analysis of apoptosis detection, Necrotic: unit not given here; conditions: 20 μM
Experimental: The day before induction of apoptosis, 1 × 10^6cells per well were plated on a 6-well plate using respective media with 10% FBS and 1% PenStrep, incubated overnight at 37 °C at 5% CO2.The media was replaced with test solutions of different concentrations in the media containing 10% FBS. The treated cells were incubated for 24 h at normal culture conditions. The cells were further harvested and the well contents were completely transferred into the sterile FACS tubes. The cell contents were centrifuged at 2000 rpm for 5 min and the supernatant was discarded. After centrifugation, the cells were washed twice with cold PBS and then resuspended in 1 ml of binding buffer at a concentration of 1× 10^6 cells/ml. […] of the cell suspension (5× 10^5 cells) were then transferred into a fresh FACS tube (Vermes et al. [1995]). Further, cells were gently mixed with […] of propidium iodide and […] of Annexin V before being incubated for 20 minutes at room temperature in the dark. The cells were immediately analyzed by flow cytometer within a duration of an hour.

Compound	IC50 [1]	IC50 (MCF-7)	IC50 (HCT 116)	IC50 [2]	IC50 [3]	IC50 [4]	% inhibition on CDK2/cyclin A (CDK2/Cyclin A)	percentage cell population G2/M phase (HCT 116 cell lines)	percentage cell population GO/G1 phase (HCT 116 cell lines)	percentage cell population S phase (HCT 116 cell lines)	FACS analysis of apoptosis detection, Early apoptotic (HCT-116 cells)	FACS analysis of apoptosis detection, Late apoptotic (HCT-116 cells)	FACS analysis of apoptosis detection, Necrotic (HCT-116 cells)	FACS analysis of apoptosis detection, Viable cells (HCT-116 cells)	apoptotic index (HCT-116 cells)
COc1cc(OC)c(C2=CCN(C)CC2)c2c1C(=O)/C(=C/c1ccccc1Br)O2 [NMA2]	21.2 to 44 µM	26.8 µM	34.9 µM	154 µM	66.5 ± 2.02 µM	83.2 ± 6.42 µM	35.350%	–	–	–	–	–	–	–	–
COc1cc2c(c(OC)c1OC)-c1ccc(OC)c(=O)cc1[C@@H](NC(C)=O)CC2 [Colchicine, reference compound]	–	–	–	–	–	–	–	43.78	47.39	8.61	–	–	–	–	–
COc1cccc2c1C(=O)c1c(O)c3c(c(O)c1C2=O)C[C@@](O)(C(=O)CO)C[C@@H]3O[C@H]1C[C@H](N)[C@H](O)[C@H](C)O1 [Doxorubicin, reference compound]	–	0.68 µM	8.11 µM	165 µM	–	–	–	–	–	–	4.44	26.61	19.86	49.09	26.61%

— publication PMC9440176, “Novel benzylidene benzofuranone analogues as potential anticancer agents: design, synthesis and in vitro evaluation based on CDK2 inhibition assays” (3 Biotech, 2022)
